Test results reported in patent publication US5260189A, “Synthetic HIV-like peptides their compositions and uses” (Immunodiagnostics, Inc., priority 1992, dated 1993).
“Also recorded” adds a separate entry of the source.

Key:
[1] = system: antibodies to HIV-1; assay: EIA of p24 synthetic peptide-BSA conjugates with serum pools and individual sera; assay type: binding, human
Description: (§1) The free peptides or peptide-protein conjugates of FIGS. 1-13 were initially screened for immunoreactivity by coating each well of polystyrene microtiter EIA plates (Costar, Cambridge, Mass., U.S.A.) with 0.2 ml amounts of concentrations of 5-50 micrograms/ml peptide in Tris buffer, 10 mM, pH 8.0, at 4° C. overnight. Peptides or peptide-protein conjugates showing immunoreactivity by EIA were then further diluted for coating to determine the minimal concentrations required that allowed maximal immunoreactivity with antibodies to HIV, and minimal nonspecific reactivity with normal sera. The EIA tests were performed as follows: The coating solution was removed from each well and the wells were blocked at 37° C. for 30 minutes with a solution of 50 mM phosphate, 100 mM NaCl, pH 7.4, 1% BSA, 0.5% gelatin. The wells were then aspirated dry with a microtiter plate washer and washed 3 times with a solution of 50 mM phosphate, 100 mM NaCl, 0.05% Tween 20, pH 7.4 (PBST). A 1:101 dilution (in PBST with 1% BSA, 1% NRS) of the primate serum to be tested was then added as 0.2 ml to each washed well and the plates were incubated at 37° C. for 30 minutes. The plates were then washed×3 with PBST, and 0.2 ml amounts of a 1:2000 dilution of goat anti-human (GAH) peroxidase enzyme conjugate (Organon Teknika, Cappel, Melvern, Pa., U.S.A.) that recognized human IgG, IgA, and IgM were added to each well, and the plates were incubated for 30 minutes at 37° C. The plates were then washed×3 with PBST and incubated with 0.2 ml/well substrate consisting of 0.1M citric acid pH 5.2, 0.1 mg/ml o-phenylene diamine, 0.01% H2 O2, at room temperature in the dark for 10 minutes. Reactions were stopped with 50 microliters of 4N H2 SO4, and the color development was quantitated in a Multiscan plate reader at A492. In each series of experiments positive and negative controls were included, and all tests were done in duplicate or quadruplicate. Most peptides and peptide conjugates were initially screened against a 1:101 dilution of pools of HIV positive or HIV negative sera, and the same serum pool was used to allow quantitative comparison of immunoreactivity of different free peptides or peptide-protein conjugates.
FIG. 8 illustrates the immunoreactivity and AA sequences of synthetic peptides of the p24 protein of HIV-1, when conjugated to BSA via their C-termini using SMCC, and reacted with a pool of approximately 50 sera from persons containing antibody to HIV-1, or with a pool of approximately 30 sera from individuals devoid of antibody to HIV-1. […] No negative sera (0/85, 0%) reacted, and 17 positive sera (17/98, 17%) were immunoreactive. It has been reported that individuals lose antibodies to p24 during the course of progression from asymptomatic infection to clinical disease and AIDS (Franchini et al., Blood 69:(2):437-441, 1987, and Weber et al., Lancet i:119-122, 1987), which may explain the lower frequency of antibodies to this peptide in the sera tested.

[2] = system: antibodies to HIV-1; assay: EIA of peptide-protein conjugates coated on polystyrene microtiter plates, human sera; assay type: binding; details: for immunoreactivity with HIV-1 antibodies (FIG. 1): C-terminal BSA-SMCC conjugates, 10 micrograms peptide/ml coating, 1:101 dilution of pooled HIV+ / HIV- sera
Description: as §1
(§2) The peptides in FIGS. 1 and 5 were synthesized as described in Example 1 and conjugated to KLH or BSA as described in Example 2. These peptide-protein conjugates were coated to polystyrene microtiter plates all at a concentration 10 micrograms peptide/ml and evaluated for immunoreactivity as described in Example 3, using a 1:101 dilution of a pool of sera (HIV+/SIV+, respectively) containing antibodies to HIV-1 (FIG. 1) or to HIV-2 (FIG. 5), as well as pooled serum (HIV-/SIV-, respectively) containing no antibodies to HIV-1 or HIV-2. […] Since sera from patients infected with HIV-2 are relatively unavailable in the United States, the immunoreactivity of HIV-2 synthetic peptides was assessed using serum from macaques infected with SIV, obtained from the University of Washington Primate Center, Seattle, Wash., U.S.A. The AA sequence of SIV is nearly identical to HIV-2 in the region of the peptides synthesized (see Myers et al., Human Retroviruses and AIDS, 1988. A compilation of nucleic acid and amino acid sequences. Los Alamos National Laboratory, Los Alamos, N. Mex., 87545, USA).

[3] = system: antibodies to SIV/HIV-2; assay: EIA of peptide-protein conjugates coated on polystyrene microtiter plates, macaque sera; assay type: binding, rhesus macaque (Macaca mulatta); details: for immunoreactivity with SIV/HIV-2 antibodies (FIG. 5): C-terminal BSA-SMCC conjugates, 10 micrograms peptide/ml coating, 1:101 dilution of pooled SIV+ / SIV- macaque sera; for discrimination of positive from negative macaque sera (FIG. 7): peptide-BSA conjugates
Description: For all of the immunoassays employing human serum, the serum samples were obtained from the King County Health Department, Seattle, Wash., U.S.A., and each serum had been characterized as positive or negative with respect to antibodies to HIV-1, as determined by testing with the commercially licensed Genetic Systems and or DuPont EIA tests. Serum from rhesus macaque monkeys (Macaca mulatta) was obtained from the University of Washington, Seattle, Wash., U.S.A., and had been characterized by a SIV whole virus lysate EIA as either containing or not containing antibodies to SIV which is nearly identical in sequence to HIV-2 in the region of the peptide epitopes studied.
as §1, §2

[4] = system: Antibodies to HIV-2; assay: Detection of seroconversion in macaques experimentally infected with SIV, EIA; assay type: binding, macaque
Description: as §1
The immunoreactivity of the HIV-2 peptide BSA conjugates 2S24, (2S24 plus 5S86), and 5S92 was evaluated for detection of seroconversion in macaques using serial sera collected over a 16 week period from 7 macaques experimentally infected with SIV at week 0.

[5] = BSA-SMCC conjugate, 85 individual sera without antibodies to HIV-1
[6] = BSA-SMCC conjugate, 98 individual sera containing antibodies to HIV-1

ALGPAATLEEMMTACGC [5S94, HIV-1 p24 peptide with GC tail]
negative sera reacting [1, 5]: 0/85 | negative sera reacting, percent [1, 5]: 0% | positive sera immunoreactive [1, 6]: 17/98 | positive sera immunoreactive, percent [1, 6]: 17% | immunoreactivity with serum pools (FIG. 8) ([1]; BSA-SMCC conjugates, pool of approximately 50 HIV+ sera and approximately 30 HIV- sera): immunoreactive peptide; also recorded: significant immunoreactivity

AVERYLKDQQLLGC [2S01]
immunoreactivity with HIV-1 antibodies (FIG. 1) [2]: significantly less immunoreactive

CSGKLICTTAVPWNAGC [3S51]
immunoreactivity with HIV-1 antibodies (FIG. 1) [2]: Significant immunoreactivity; also recorded: higher reactivity

DQARLNSWGCAFRQVC [2S24]
immunoreactivity with SIV/HIV-2 antibodies (FIG. 5) [3]: Significant immunoreactivity; also recorded: best immunoreactivity; also recorded: maximally immunoreactive | discrimination of positive from negative macaque sera (FIG. 7) [3]: most favorable performances | Reactivity by Peptide-BSA Conjugate (reactive macaques/7) ([4]; Week 0 (SIV infection at week 0)): 0/7 | Reactivity by Peptide-BSA Conjugate (reactive macaques/7) ([4]; Week 1): 0/7 | Reactivity by Peptide-BSA Conjugate (reactive macaques/7) ([4]; Week 2): 1/7 | Reactivity by Peptide-BSA Conjugate (reactive macaques/7) ([4]; Week 3): 2/7 | Reactivity by Peptide-BSA Conjugate (reactive macaques/7) ([4]; Week 4): 4/7 | Reactivity by Peptide-BSA Conjugate (reactive macaques/7) ([4]; Week 6): 6/7 | Reactivity by Peptide-BSA Conjugate (reactive macaques/7) ([4]; Week 8): 7/7 | Reactivity by Peptide-BSA Conjugate (reactive macaques/7) ([4]; Week 12): 7/7 | Reactivity by Peptide-BSA Conjugate (reactive macaques/7) ([4]; Week 16): 7/7

ERYLKDQQLLGIWGC [2S02]
immunoreactivity with HIV-1 antibodies (FIG. 1) [2]: significantly less immunoreactive

GCSGKLICTTAVPWNGC [2S11]
immunoreactivity with HIV-1 antibodies (FIG. 1) [2]: Significant immunoreactivity; also recorded: higher reactivity

GKLICTTAVPWNASWGC [3S55]
immunoreactivity with HIV-1 antibodies (FIG. 1) [2]: Significant immunoreactivity; also recorded: higher reactivity

IKQLQARILAVERYLKDQQ [4S24, reference compound]
immunoreactivity with HIV-1 antibodies (FIG. 1) [2]: lower immunoreactivity

IWGCSGKLICTTAVPGC [2S09]
immunoreactivity with individual positive sera (FIGS. 10B, 10C) ([2]; BSA-SMCC conjugate, 98 HIV-1 antibody positive human sera): some positive samples had very low immunoreactivity | immunoreactivity with HIV-1 antibodies (FIG. 1) [2]: Significant immunoreactivity; also recorded: slightly superior immunoreactivity; also recorded: maximally immunoreactive; also recorded: higher reactivity

IWGCSGKMICTTAVPGC [5S76, unnatural variant of HIV-1 gp41 peptide 2S09]
number of positive samples giving A492 less than 1.0 ([2]; BSA-SMCC conjugate, 98 positive human sera (FIGS. 11A, 11B)): Five

KDQQLLGIWGCSGKLGC [2S04]
immunoreactivity with HIV-1 antibodies (FIG. 1) [2]: Significant immunoreactivity

KLICTTAVPWNASWSGC [2S15]
immunoreactivity with HIV-1 antibodies (FIG. 1) [2]: Significant immunoreactivity; also recorded: higher reactivity

LGIWGCSGKLICTTAGC [2S07]
immunoreactivity with HIV-1 antibodies (FIG. 1) [2]: Significant immunoreactivity

LLGIWGCSGKLICTTGC [2S06]
immunoreactivity with HIV-1 antibodies (FIG. 1) [2]: Significant immunoreactivity

QQLLGIWGCSGKLICGC [3S36]
immunoreactivity with HIV-1 antibodies (FIG. 1) [2]: Significant immunoreactivity

RILAVERYLKDQQLLGIWGCSGKLIC [4S25, reference compound]
immunoreactivity with HIV-1 antibodies (FIG. 1) [2]: Significant immunoreactivity; also recorded: lower immunoreactivity; also recorded: lower or comparable immunoreactivity

SGKLICTTAVPWNASGC [2S13]
immunoreactivity with HIV-1 antibodies (FIG. 1) [2]: Significant immunoreactivity; also recorded: higher reactivity

SWGCAFRQVCHTSVPGC [5S86, HIV-2/SIV natural peptide]
discrimination of positive from negative macaque sera (FIG. 7) [3]: most favorable performances

SWGCAFRQVCHTTVPGC [2S27]
immunoreactivity with SIV/HIV-2 antibodies (FIG. 5) [3]: Significant immunoreactivity; also recorded: best immunoreactivity; also recorded: maximally immunoreactive | discrimination of positive from negative macaque sera (FIG. 7) [3]: most favorable performances

YLKDQQLLGIWGCSGC [2S03]
immunoreactivity with HIV-1 antibodies (FIG. 1) [2]: significantly less immunoreactive
